# Experimental data as given in PubChem BioAssay AID2060512 (Molecular Pharmacology Branch, DTP, NCI, 2025).
# Test system: 186277-243-T-J2-PDC complex spheroid viability
# Test: Anticancer human tumor 186277-243-T-J2-PDC patient-derived colon adenocarcinoma cell line growth inhibition [GQUAD]
# Settings: for IC50: curve of first compound; for viability, T/C: stronger effect = lower value
# Method in brief: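 Multi-cell-type spheroids of tumor cells with HUVEC and mesenchymal stem cells, treated with drug combinations. Concentrations descend in half-log steps from near clinical Cmax, or from 10 microM where Cmax is unknown; viability read-out.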
# [1] = second compound 0.0316 µM, first compound 0.0316 µM
# [2] = second compound 0.0316 µM, first compound 0.1 µM
# [3] = second compound 0.0316 µM, first compound 0.316 µM
# [4] = second compound 0.0316 µM, first compound 1 µM
# [5] = second compound 0.0316 µM, first compound 3.16 µM
# [6] = second compound 0.0316 µM, first compound 10 µM
# [7] = second compound 0.1 µM, first compound 0.0316 µM
# [8] = second compound 0.1 µM, first compound 0.1 µM
# [9] = second compound 0.1 µM, first compound 0.316 µM
# [10] = second compound 0.1 µM, first compound 1 µM
# [11] = second compound 0.1 µM, first compound 3.16 µM
# [12] = second compound 0.1 µM, first compound 10 µM
# [13] = second compound 0.316 µM, first compound 0.0316 µM
# [14] = second compound 0.316 µM, first compound 0.1 µM
# [15] = second compound 0.316 µM, first compound 0.316 µM
# [16] = second compound 0.316 µM, first compound 1 µM
# [17] = second compound 0.316 µM, first compound 3.16 µM
# [18] = second compound 0.316 µM, first compound 10 µM
# [19] = second compound 1 µM, first compound 0.0316 µM
# [20] = second compound 1 µM, first compound 0.1 µM
# [21] = second compound 1 µM, first compound 0.316 µM
# [22] = second compound 1 µM, first compound 1 µM
# [23] = second compound 1 µM, first compound 3.16 µM
# [24] = second compound 1 µM, first compound 10 µM
# [25] = second compound 3.16 µM, first compound 0.0316 µM
# [26] = second compound 3.16 µM, first compound 0.1 µM
# [27] = second compound 3.16 µM, first compound 0.316 µM
# [28] = second compound 3.16 µM, first compound 1 µM
# [29] = second compound 3.16 µM, first compound 3.16 µM
# [30] = second compound 3.16 µM, first compound 10 µM
# [31] = second compound 10 µM, first compound 0.0316 µM
# [32] = second compound 10 µM, first compound 0.1 µM
# [33] = second compound 10 µM, first compound 0.316 µM
# [34] = second compound 10 µM, first compound 1 µM
# [35] = second compound 10 µM, first compound 3.16 µM
# [36] = second compound 10 µM, first compound 10 µM
# 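Note: spheroids exposed to drugs for 7 days.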
# 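Throughout, for viability, T/C: 100% = DMSO vehicle control viability.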
compound,measurement,setting,value
CC(=O)O[C@H]1C(=O)[C@@]2(C)[C@H]([C@H](OC(=O)c3ccccc3)[C@]3(O)C[C@H](OC(=O)[C@H](O)[C@@H](NC(=O)c4ccccc4)c4ccccc4)C(C)=C1C3(C)C)[C@]1(OC(C)=O)CO[C@@H]1C[C@@H]2O + Cc1[nH]c2ccc(F)cc2c1-c1nc2c3cccnc3c3ncccc3c2[nH]1,IC50,second compound 0.0316 µM,< 31.6 nM
same,IC50,second compound 0.1 µM,< 31.6 nM
same,IC50,second compound 0.316 µM,< 31.6 nM
same,IC50,second compound 1 µM,< 31.6 nM
same,IC50,second compound 3.16 µM,< 31.6 nM
same,IC50,second compound 10 µM,< 31.6 nM
same,"viability, T/C",[1],15.7%
same,"viability, T/C",[2],4.95%
same,"viability, T/C",[3],6.22%
same,"viability, T/C",[4],4.92%
same,"viability, T/C",[5],4.75%
same,"viability, T/C",[6],4.49%
same,"viability, T/C",[7],15%
same,"viability, T/C",[8],5.55%
same,"viability, T/C",[9],4.93%
same,"viability, T/C",[10],4.7%
same,"viability, T/C",[11],4.6%
same,"viability, T/C",[12],4.6%
same,"viability, T/C",[13],15.1%
same,"viability, T/C",[14],5.62%
same,"viability, T/C",[15],4.72%
same,"viability, T/C",[16],4.93%
same,"viability, T/C",[17],5.02%
same,"viability, T/C",[18],4.65%
same,"viability, T/C",[19],12%
same,"viability, T/C",[20],5.43%
same,"viability, T/C",[21],4.8%
same,"viability, T/C",[22],4.59%
same,"viability, T/C",[23],4.91%
same,"viability, T/C",[24],4.25%
same,"viability, T/C",[25],11.6%
same,"viability, T/C",[26],5.28%
same,"viability, T/C",[27],4.81%
same,"viability, T/C",[28],3.9%
same,"viability, T/C",[29],5.02%
same,"viability, T/C",[30],4.07%
same,"viability, T/C",[31],12.4%
same,"viability, T/C",[32],5.2%
same,"viability, T/C",[33],3.75%
same,"viability, T/C",[34],3.85%
same,"viability, T/C",[35],4.46%
same,"viability, T/C",[36],3.46%
COc1cc(C2c3cc4c(cc3C(OC3OC5COC(C)OC5C(O)C3O)C3COC(=O)C23)OCO4)cc(OC)c1O (centres undefined) + Cc1[nH]c2ccc(F)cc2c1-c1nc2c3cccnc3c3ncccc3c2[nH]1,IC50,second compound 0.0316 µM,3720 nM
same,IC50,second compound 0.1 µM,2420 nM
same,IC50,second compound 0.316 µM,3480 nM
same,IC50,second compound 1 µM,3340 nM
same,IC50,second compound 3.16 µM,2580 nM
same,IC50,second compound 10 µM,2760 nM
same,"viability, T/C",[1],104%
same,"viability, T/C",[2],101%
same,"viability, T/C",[3],101%
same,"viability, T/C",[4],62.2%
same,"viability, T/C",[5],61.3%
same,"viability, T/C",[6],25%
same,"viability, T/C",[7],92.1%
same,"viability, T/C",[8],92.4%
same,"viability, T/C",[9],76.8%
same,"viability, T/C",[10],62%
same,"viability, T/C",[11],47.9%
same,"viability, T/C",[12],27.2%
same,"viability, T/C",[13],94.6%
same,"viability, T/C",[14],90.2%
same,"viability, T/C",[15],83.4%
same,"viability, T/C",[16],69.3%
same,"viability, T/C",[17],52.9%
same,"viability, T/C",[18],26.2%
same,"viability, T/C",[19],104%
same,"viability, T/C",[20],87.1%
same,"viability, T/C",[21],85.6%
same,"viability, T/C",[22],66.9%
same,"viability, T/C",[23],53.5%
same,"viability, T/C",[24],27.4%
same,"viability, T/C",[25],96.6%
same,"viability, T/C",[26],101%
same,"viability, T/C",[27],110%
same,"viability, T/C",[28],69%
same,"viability, T/C",[29],49.8%
same,"viability, T/C",[30],25.5%
same,"viability, T/C",[31],103%
same,"viability, T/C",[32],98%
same,"viability, T/C",[33],94.1%
same,"viability, T/C",[34],70.6%
same,"viability, T/C",[35],48.1%
same,"viability, T/C",[36],30.5%
